Data reported in PubChem BioAssay AID1996.
Values after ≈ are worked out from the molar mass of the structure shown.

Details: buffer; pH 7.4; 200.0 µM

Structure (SMILES) | solubility kinetic [µg/mL]
CCCCCNC(=O)[C@@H]1CSC2c3ccccc3C(=O)N21 (some centres undefined) | 27.7 (≈ 91 µM)
Nc1ncccc1OCc1ccc(Br)cc1 | 37.3 (≈ 134 µM)
COc1ccc(F)cc1S(=O)(=O)NCCCn1ccnc1 | > 47
CCCCOc1ccc(C(=O)NCC(=O)NNC(=O)c2ccco2)cc1 | > 53.9
O=C(CN1CCc2ccccc21)NC(=O)NC1CCCCC1 | 34.8 (≈ 115 µM)
Cc1cc2nsnc2c(S(=O)(=O)N2CCN(C)CC2)c1C | 47.9 (≈ 147 µM)
COc1ccc(NC(=O)c2onc(C)c2Cl)cc1 | 10 (≈ 37.5 µM)
COc1ccccc1NC(=O)c1ccc(NC(=O)CN2CCCCC2)cc1.O=C(O)C(=O)O | > 68.6
CCc1cc(C(=O)NCC(C)(C)N2CCOCC2)sc1C | > 46.6
CC(=O)Nc1ccc(NC(=O)COc2ccc(-c3ccccc3)cc2)cc1 | < 0.4
CC(Sc1nc(N)cc(N)n1)C(=O)NCC1CCCO1 (centres undefined) | > 44.6
O=C(Nc1ccc(C(F)(F)F)cc1)OC1CN2CCC1CC2 (centres undefined) | 45.1 (≈ 143 µM)
Cn1cccc1C(=O)Nc1ccc(N2CCOCC2)cc1 | > 42.8
CC(C(=O)c1c[nH]c2ccccc12)N1CCOCC1 (centres undefined) | > 38.7
Cc1ccc2oc(=O)n(Cc3ccc(F)cc3)c2c1 | 2 (≈ 7.77 µM)
CCOC(=O)N1CCN(CC(O)c2c[nH]c3ccc(OC)cc23)CC1 (centres undefined) | > 52.1
CC(C)c1nc2sc3c(SCC(N)=O)ncnc3c2c2c1CCC2 | 0.5 (≈ 1.39 µM)
CCOC(=O)COc1nc(C)cc(C(F)(F)F)c1C#N | 36 (≈ 125 µM)
O=c1oc2ccccc2c(O)c1Cc1cc(Cl)c2cccnc2c1O | > 53.1
CN1CCN(c2ccc(CNS(=O)(=O)c3ccccc3)cc2)CC1 | 12.6 (≈ 36.5 µM)
Cc1ccc(NC(=O)CNC(=O)c2ccco2)c(Cl)c1 | > 43.9
Cc1cc(C(=O)OCC(=O)NC(C)c2ccc(F)cc2)c(C)o1 (centres undefined) | 11.4 (≈ 35.7 µM)
Cc1ccccc1NC(=O)c1ccc2ccccc2c1 | 1.2 (≈ 4.59 µM)
N#Cc1ccc(N2CCOCC2)nc1 | > 28.4

Structure (SMILES) | solubility kinetic [µg/mL]
CC(C)(C)NC(=O)c1cccc2c1C(=O)c1ccccc1-2 | 3.9 (≈ 14 µM)
COc1cccc(C2CCCCN(C)C2=O)c1 (centres undefined) | 32.7 (≈ 140 µM)
Cc1cc(C)c(C#N)c(SCC(=O)C2CC2)n1 | 3.6 (≈ 14.6 µM)
S=C1NCN(Cc2cccnc2)CN1c1cccc(Cl)c1 | > 47.8
CCc1cc2c(CN(C)Cc3ccccc3F)cc(=O)oc2cc1O | 9.5 (≈ 27.8 µM)
CC(=O)Nc1nnc(SCC(=O)NC2CC2)s1 | > 40.9
O=C(Nc1ccc(S(=O)(=O)Nc2ccccc2)cc1)C1CC1 | 12.6 (≈ 39.8 µM)
CCOc1ccccc1NC(=S)NC(=O)C1CC1 | 2.6 (≈ 9.84 µM)
O=C(NCCO)/C(=C/c1ccco1)NC(=O)c1ccco1 | 43.3 (≈ 149 µM)
Cn1c(-c2ccc(F)cc2)cnc1NCc1ccc(F)cc1F | 34.9 (≈ 110 µM)
Cc1ccc(OCC(=O)Nc2ccccc2F)cc1C | 3.2 (≈ 11.7 µM)
COc1ccc(C(=O)NCc2ccc3c(c2)CCO3)cc1 | 32.5 (≈ 115 µM)
OCCCNc1ncnc2oc(-c3ccccc3)c(-c3ccccc3)c12 | 17.5 (≈ 50.7 µM)
CCC(C(=O)OC)n1cnc2scc(-c3ccc(C)cc3)c2c1=O (centres undefined) | 29.3 (≈ 85.6 µM)
CC(=O)C1=C(O)C(=O)N(C)C1c1ccccc1[N+](=O)[O-] (centres undefined) | > 41.4
COc1ccc2oc(C(=O)OCC(=O)N3CCC(C)CC3)c(C)c2c1 | 41.8 (≈ 121 µM)
O=C(Nc1cc(N2CCOCC2)ncn1)NC1(C(F)(F)F)Oc2ccc(Cl)cc2O1 (centres undefined) | 65.5 (≈ 147 µM)
Cc1cccc(NC(=S)NC2CC3C=CC2C3)c1 (centres undefined) | 6.2 (≈ 24 µM)
CC(=O)CCSc1ncnc2sc(-c3ccccc3)cc12 | 0.6 (≈ 1.91 µM)
N#Cc1ccc(C(=O)OCC(=O)N2CCN(C(=O)c3ccco3)CC2)cc1 | > 55.1
O=C(O)Cc1ccc2oc(-c3ccccn3)nc2c1 | > 38.1
Cc1cc(NC(=O)COc2ccc(C(C)(C)C)cc2)no1 | 2 (≈ 6.94 µM)
COc1cc(Cl)c(C)cc1NC(=O)CN1C(=O)C2CC=CCC2C1=O (centres undefined) | > 54.4
O=C(O)c1ccc(S(=O)(=O)N2CCCc3ccccc32)cc1 | > 47.6

Structure (SMILES) | solubility kinetic [µg/mL]
OC[C@H]1O[C@@H](n2cnc3c(Nc4ccccc4)ncnc32)[C@H](O)[C@@H]1O | > 51.5
CS(=O)(=O)N1CCCC(C(=O)Nc2ccccc2C(F)(F)F)C1 (centres undefined) | > 52.6
Cc1ccc(NS(=O)(=O)c2ccc(NC(=O)c3ccccc3C(=O)O)cc2)cc1C | > 63.7
Cc1cccc(OCCn2c(=O)oc3ccc(C)cc32)c1 | 3.8 (≈ 13.4 µM)
NC(Cc1ccccc1)c1nc(-c2ccccc2)no1 (centres undefined) | > 39.8
Cc1noc(NS(=O)(=O)c2ccc(NS(=O)(=O)c3ccc(Cl)cc3)cc2)c1C | > 66.3
Cc1cc(C)cc(C(=O)Nc2cccnc2)c1 | > 33.9
COc1cccc(CN(C)S(=O)(=O)c2cccs2)c1 | 25.1 (≈ 84.4 µM)
Cc1cccnc1NC(=O)CCNC(=O)c1ccc(Cl)cc1 | > 47.7
COc1ccc2o/c(=N\O)c(C(=O)Nc3ccc(C)cc3)cc2c1 | 11.7 (≈ 36.1 µM)
COc1cc(OC)cc(C(=O)OCC(=O)N2CCCC2)c1 | > 44
COc1ccccc1OCC(=O)NC1CCCc2ccccc21 (centres undefined) | 41.6 (≈ 134 µM)
O=C(O)C1CC=CCC1C(=O)Nc1ccc2c(c1)CCC2 (centres undefined) | > 42.8
O=C(/C=C/c1ccco1)Nc1cccnc1Cl | 33 (≈ 133 µM)
O=C(COC(=O)c1ccccc1Br)NC1CCCC1 | > 48.9
CC(=O)NC(CC(=O)OCc1ccc([N+](=O)[O-])cc1)c1ccccc1 (centres undefined) | > 51.4
Cc1[nH]c2ccc(C(=O)NCc3ccccn3)cc2c1C | > 41.9
O=C(Nc1ccc(Br)cc1Cl)c1ccc(OCC2CCCO2)cc1 (centres undefined) | 2.8 (≈ 6.82 µM)
O=C(Nc1ccc2c(c1)OCO2)c1ccc(CO)cc1 | > 40.7
COc1ccccc1Nc1nc(NCC(C)C)nc(N)c1[N+](=O)[O-] | 0.3 (≈ 0.903 µM)
Cc1cc(Cl)ccc1NC(=S)NC(C)(C)C | 28.3 (≈ 110 µM)
CC1=C(C(=O)OC2CCCCC2)C(c2ccc(F)cc2)NC(=O)N1 (centres undefined) | 31.2 (≈ 93.9 µM)
COc1ccc(CNC(=O)c2cc3cccc(O)c3oc2=N)cc1 | 7.2 (≈ 22.2 µM)
Clc1ccc(N2CC2c2ccncc2)cc1 (centres undefined) | 32.6 (≈ 141 µM)

Structure (SMILES) | solubility kinetic [µg/mL]
COc1ccc(OC)c(NC(=O)N2CCc3ccccc3C2)c1 | > 46.9
Brc1ccc(-c2ncc3ccccn23)cc1 | 29.3 (≈ 107 µM)
CC1CC(CN)CC(CO)C1 (centres undefined) | > 23.6
CCN(CC)C(=O)N1CCN(S(=O)(=O)c2ccccc2)CC1 | > 48.8
CC(=O)Oc1ccc(C(=O)NCCc2ccccc2)cc1 | 21.5 (≈ 75.9 µM)
Cc1nn(CCCC(=O)Nc2ccccn2)c(C)c1[N+](=O)[O-] | > 45.5
Cc1ccc(/C=N/NC(=O)c2ccc3nc[nH]c3c2)o1 | > 40.2
O=Cc1c[nH]c2ccc(OCc3ccccc3)cc12 | < 0.5
Cc1ccc2oc(C(=O)NCCC3CCCCO3)c(C)c2c1 (centres undefined) | 43.1 (≈ 143 µM)
CCOc1cc(C2NC(=O)c3ccccc3O2)ccc1OC (centres undefined) | 8.6 (≈ 28.7 µM)
CC1CCCC(NC(=O)COC(=O)[C@@H](NC(=O)c2ccccc2Cl)C(C)C)C1C (some centres undefined) | 46.1 (≈ 109 µM)
O=C(O)c1nn2cc(CCO)cnc2c1Cl | > 36.2
Cc1cc([N+](=O)[O-])nn1CC(=O)N1CCN(Cc2ccccc2)CC1 | > 51.5
COc1ccc(CN2C(=O)c3ccccc3C2OC)cc1 (centres undefined) | > 42.5
O=C(c1ccc([N+](=O)[O-])cc1)N1CCN(C(=O)c2cccnc2)CC1 | > 51.1
O=C(c1cccnc1)N1c2ccccc2Sc2ccccc21 | 43.1 (≈ 142 µM)
CCOC(=O)C1CCCN(Cc2ccc(-c3ccccc3)cc2)C1 (centres undefined) | 11.9 (≈ 36.8 µM)
CCNC(=S)N1CCC(C(=O)c2ccc3c(c2)OCCO3)CC1 | 44.8 (≈ 134 µM)
CC(=O)Nc1ccc(C(=O)OCCc2ccccc2)cc1 | 38.8 (≈ 137 µM)
CCOC(=O)Cn1nc(C)c(NC(=O)COc2ccc(OC)cc2)c1C | > 54.2
CCOC(=O)CN1C(=O)CC(c2ccc([N+](=O)[O-])cc2)C1=O (centres undefined) | > 45.9
CC(=O)N1CCc2cc(S(=O)(=O)Nc3ccc(C)cc3)ccc21 | 3.6 (≈ 10.9 µM)
COc1ccccc1C1CCN(Cc2ccc(Cl)cc2Cl)CC1 | < 0.8
COc1ccc(NC(=O)CCC(=O)N/N=C/c2cccnc2)cc1 | > 49

Structure (SMILES) | solubility kinetic [µg/mL]
CCOc1ccc(N2C(=O)CC(SCC(=O)O)C2=O)cc1 (centres undefined) | > 46.4
COc1ccc(NS(=O)(=O)c2cc(NC(=O)c3ccccn3)ccc2OC)cc1Br | 3.4 (≈ 6.91 µM)
Cc1ccc(C23CC4CC(CC(CN)(C4)C2)C3)cc1.Cl | > 43.8
COc1ccccc1-c1c(NC(=O)C(C)C)n(C)c2ccccc2c1=O | > 52.6
CCn1c(C)nc2cc(C(=O)OC)ccc21 | > 32.7
Cc1ccc(NC(=O)COC(=O)[C@@H]2CC(O)CN2S(=O)(=O)c2ccc3c(c2)OCCO3)cc1 (some centres undefined) | > 71.5
Cc1ccc([N+](=O)[O-])cc1N | 13.5 (≈ 88.7 µM)
O=C(CCCc1ccccc1)Nc1cccc([N+](=O)[O-])c1 | 26.4 (≈ 92.9 µM)
CCOC(=O)c1ccc(NC(=O)C2CC(O)CN2S(=O)(=O)c2ccc(C)cc2)cc1 (centres undefined) | > 64.9
O=C(NCCC1CCCC1)c1cccs1 | > 33.5
O=C(CSCc1ccco1)N1CCc2ccccc21 | 36.9 (≈ 135 µM)
CC(=O)N/C(=N\c1nc(C)cc(C)n1)Nc1ccccc1Cl | 0.5 (≈ 1.57 µM)
Cc1onc(-c2c(Cl)cccc2Cl)c1C(=O)c1ccccc1 | 5.1 (≈ 15.4 µM)
O=[N+]([O-])c1ccc(Sc2cc[n+]([O-])c3ccccc23)c([N+](=O)[O-])c1 | 4.6 (≈ 13.4 µM)
O=C(NCCCN1CCOCC1)C(=O)NCc1ccccc1 | > 45.8
COc1ccc(-c2csc(NC(=O)CN3C(=O)C4CC=CCC4C3=O)n2)cc1OC (centres undefined) | 16 (≈ 37.4 µM)
CC(=O)NC(=O)c1cnn(-c2ccccc2)c1N | > 36.6
CCOC(=O)c1ccc(-c2ccc3c(c2)CCC3)nc1C | < 0.6
O=C(CCCc1ccccc1)NCCCc1ccccc1 | 33 (≈ 117 µM)
N#C/C(=C(/O)c1ccc(C(=O)c2ccccc2)cc1)c1nc2ccccc2[nH]1 | < 0.3
CC(C)NC(=O)CNc1ccc(C(F)(F)F)cc1[N+](=O)[O-] | 13.4 (≈ 43.9 µM)
COc1ccc(C(C)=O)cc1CN1C(=O)NC(CC(C)C)C1=O (centres undefined) | > 47.8
c1ccc(-c2cccs2)nc1 | 1.9 (≈ 11.8 µM)
